Laboratory results: patent US20240058283A1, “THE MODE OF ACTION OF N-MeDCPA ON TRPC CHANNELS” (West Virginia University Board of Governors on Behalf of …, priority 2022, published 2024)

Tests used:
Serum levels in vivo = experiment: Serum levels in vivo
Description: We have extensively investigated inhibitors of the store-operated Ca^2+ entry (SOCE) pathway as a target for control of bone erosion, particularly in the context of arthritis. […] On this basis, we have assessed the possibility that DCPA and/or DCPA analogs might be effective inhibitors of bone erosion in the context of arthritis^6. While this has proven to the case (data not shown), this investigation has opened new questions regarding the true identity of the DCPA target. […] As such, we have assessed the possibility that DCPA and its analogs may have a different target, especially within the context of arthritis.

osteoclasts = settings: reference 3, cited from earlier work

CCC(=O)Nc1ccc(Cl)c(Cl)c1 [DCPA, 3,4-dichloropropionaniline]
serum levels (Serum levels in vivo): ≤ 100 nM
formation of bone degrading osteoclasts (osteoclasts; in vitro): reduced the formation of bone degrading osteoclasts
concentration needed to block osteoclast differentiation (osteoclasts; no block below this concentration): ≥ 100 µM
